Measured values from US9969755B2, “Photodynamic therapy photosensitizers” (The Royal Institution for the Advancement of …, priority 2016, dated 2018).
Like-named read-outs stand apart in the source and are kept apart here. Values belong to the compound of their own block, whether it stands above or below them.

Experiments:
[1] = reference value; cited from earlier work
[2] = Absorption and steady-state fluorescence, fluorescence quantum yield in acetonitrile; assay type: physicochemical
Description: Absorption spectra were recorded using a Hitachi U-2800 UV-vis-NIR spectrophotometer. Luminescence spectra were recorded using a PTI QuantaMaster spectrofluorimeter using 10×10 mm quartz cuvettes and corrected for detector sensitivity.
The steady-state fluorescence spectra were recorded between 500-800 nm (depending on each compound) upon exciting at the wavelength of the absorbance maxima. The excitation and emission slits were tuned according to the fluorescence quantum yield of each BODIPY (i.e. for compound 7 excitation slits were 5 nm and for compound 4 we used 2 nm). Fluorescence was recorded every 1 nm using 0.1 s integration time. For the Fluorescence lifetime measurements, the excitation rate was 10 MHz, and the detection frequency was less than 100 kHz. Photons were collected at the magic angle. The fluorescence decay traces were fit using FluoFit (Picoquant) software. For steady-state and time-resolved fluorescence measurements a quartz cuvette with a 10 mm path length was used and all the solutions were prepared in air equilibrated acetonitrile.
Quantum yields of fluorescence were measured using PM605 in acetonitrile as a reference. Absorption and emission spectra of PM605 and the dye of interest were measured in acetonitrile at five different concentrations. The integrated intensity versus absorbance were then plotted and fitted linearly. Relative quantum yields of fluorescence for the unknown with respect to the standard were obtained from equation 1, where φ, Δ, and n refer, respectively, to the quantum yield, the slope obtained from the above-mentioned plot, and the solvent refractive index for the unknown (x) or standard (st).

[3] = Time-resolved fluorescence (fluorescence lifetime, TCSPC); assay type: physicochemical; conditions: acetonitrile, room temperature
Description: Fluorescence lifetime measurements were carried out using a Picoquant Fluotime 200 time correlated single photon counting (TCSPC) setup employing an LDH-P-C-470 picosecond diode laser (Picoquant) with an excitation wavelength at 466 nm as the excitation source. The laser was controlled by a PDL 800 B picosecond laser driver from Picoquant. ^1HNMR spectra were recorded on a Bruker AV 400 instrument at 400 MHz. ^13CNMR spectra were recorder on a Varian VNMRS 500 instrument at 125 MHz. ESI mass spectra were measured on a Bruker maXis impact. Laser Flash Photolysis (LFP) experiments were carried out in a commercially available Luzchem 212 LFP setup provided with a Tektronix TDS 2000 digitizer for signal capture. A Nd:Yag laser (Continuum model Surelite I-10 using a second harmonic generators, model number SL-SHG-T1) was used for excitation at a wavelength of 532 nm. Phosphorescence experiments were recorded using a Cary Eclipse Fluorescence Spectrophotometer. Singlet Oxygen phosphorescence was recorded with a Hamamatsu NIR detector (peltier cooled at −62.8° C. operating at 800 V, coupled to a grating monochromator) upon excitation with a 532 nm Nd:YAG laser. A customized Luzchem Research LFP-111 system was employed to collect and process the data. The steady-state fluorescence spectra were recorded between 500-800 nm (depending on each compound) upon exciting at the wavelength of the absorbance maxima. The excitation and emission slits were tuned according to the fluorescence quantum yield of each BODIPY (i.e. for compound 7 excitation slits were 5 nm and for compound 4 we used 2 nm). Fluorescence was recorded every 1 nm using 0.1 s integration time. For the Fluorescence lifetime measurements, the excitation rate was 10 MHz, and the detection frequency was less than 100 kHz. Photons were collected at the magic angle. The fluorescence decay traces were fit using FluoFit (Picoquant) software. For steady-state and time-resolved fluorescence measurements a quartz cuvette with a 10 mm path length was used and all the solutions were prepared in air equilibrated acetonitrile.

[4] = Laser flash photolysis: triplet excited state decay and quenching; assay type: physicochemical
Description: The 500 mJ/pulse laser output was attenuated yielding 10 mJ laser pulses of 6 ns in duration. Samples were prepared in acetonitrile. The final absorbance of the BODIPY dyes was 0.1. The concentration was kept low to avoid triplet-triplet annihilation. Each sample was de-oxygenated by purging with argon gas for at least 30 min. Quartz cells containing 10×10 mm path length were used. The decay of the BODIPYs was monitored between 420-440 and 520-550 nm (depending the BODIPY) following the laser excitation. Samples were irradiated with a total of 6 laser shots to acquire the temporal evolution of ΔOD.
A second layer of control was subsequently tested via LFP studies, to monitor the extent to which the trap segment deactivates the triplet excited state of the photosensitizes. […] The two quenchers emulate the trap segments utilized in 7 and 8, respectively.

[5] = ^1O2 quantum yield, photooxidation of DMA (indirect method); assay type: physicochemical; conditions: consumption of dimethylanthracene, Rose Bengal standard, air equilibrated acetonitrile
Description: Solutions of 9,10-dimethylanthracene (DMA, 50 μM) and photosensitizers (compound 3-10) in air equilibrated acetonitrile were irradiated in 10 mm path length quartz cell (3 ml) with a Nd:Yag laser exciting at 532 nm. Laser excitation was performed at 10 Hz, providing one laser output for every discharge of the flashlamp. An irradiation time of 1 s is equivalent to 10 laser pulses. The energy of each pulse was 10 mJ. The kinetics of DMA photooxidation were studied by following the decrease of the absorbance at λ=377 nm. The observed rate constant (kobs) was obtained by a linear least-squares fit of the semilogarithmic plot of ln [DMA]0/[DMA] (see FIG. 14). Quantum yields of ^1O2 production (φΔ^I) were calculated comparing the kobs=kq [^1O2] for the corresponding photosensitizer with that for Rose Bengal, which was used as a reference (φΔ=0.54).^1 Measurements of the sample and the reference under the same conditions afforded φΔ^I for compounds (3-10) by direct comparison of the slope in the linear region of the plots.
For the indirect detection of ^1O2, it is possible to determine the kq value considering that the production of ^1O2 is constant compare with the initial concentration of DMA. According to these, a pseudo first-order kinetic for this reaction is proposed (equations 2 to 5): […]
The conversion of DMA followed pseudo-first order kinetics with the different photosensitizers (see FIG. 14). From equation 5, it was possible to determine kobs and ^1O2.

[6] = ^1O2 quantum yield and lifetime, ^1O2 phosphorescence at 1270 nm (direct method); assay type: physicochemical
Description: The generation of singlet oxygen and its lifetime were determined from ^1O2 phosphorescence decay curves recorded at 1270 nm upon excitation with a 532 nm Nd:YAG laser. A total of 3 laser shots were applied to acquire a trace. […] Quantum yield of ^1O2 production (φΔ^D) were calculated comparing the intensity of ^1O2 phosphorescence at 1270 nm for the corresponding photosensitizer with that recorded for Rose Bengal (φΔ=0.54).^81

[7] = Intermolecular quenching of ^1O2 phosphorescence by chromanol rings; assay type: physicochemical; conditions: ^1O2 generated upon irradiation of compound 5, air equilibrated acetonitrile
From the text: To test whether 7 is equally efficient at deactivating ^1O2 as α-tocopherol, we generated ^1O2 upon irradiation of compound 5 and monitored the ^1O2 phosphorescence lifetime in the presence of increasing amounts of either 7 or PMHC (an α-tocopherol analogue lacking the phytyl tail).

[8] = cited from earlier work; for overall singlet oxygen quenching rate constant kq: kq(physical)+kq(chemical), reference 74; for chemical quenching of ^1O2 / physical quenching of ^1O2: share of total quenching
[9] = cited from earlier work; for abs λmax / em λmax / Φf (fluorescence quantum yield) / ε (extinction coefficient): acetonitrile, room temperature, from reference 31; for E00 (HOMO-LUMO gap): from reference 54 (1) or 31 (2)
[10] = acetonitrile, room temperature; from reference 31; cited from earlier work
[11] = cited from earlier work; for E^oB^+·/B (reversible oxidation potential): from reference 54 (1) or 31 (2)
[12] = from reference 54 (1) or 31 (2); cited from earlier work
[13] = from reference 54 (1) or 31 (2); cited from earlier work; remark: listed apart in the source
E. coli ATCC 25922 = assay: Antibacterial photodynamic inactivation, regular vs hydrogen peroxide stressed bacteria (CFU counts); assay type: cell-based; conditions: in the dark; 7 with or without H2O2
Description: The microorganism used for this study is E. coli ATCC 25922. Stock cultures were preserved at −70° C. using glycerol 10% (v/v) as the cryoprotectant, and the strain was grown in Luria Bertania broth (LB). Bacterial culture was prepared inoculating a single colony from a pure culture. After overnight incubation at 37° C. for 18 h, the culture reached a density of approximately 1×10^9 CFU/mL and it was diluted to 10^6 CFU/mL.
At the end of the irradiation time, 100 μL aliquots were placed in 96 wells from each tube and serially diluted 10-fold in PBS to obtain dilutions of 10^1 to 10^4 fold, in addition to the original concentration, on agar plates to determine CFU. Viability counts were performed at 0 and 1 hour in either dark or light conditions from each dilution, 10 μL aliquots were plated on LB agar. Plates were streaked in triplicate and incubated for 18 h at 37° C. Each experiment was performed at least three times on different days.
To stress the cells we utilized hydrogen peroxide, known to stimulate ROS production in Gram-negative cells.^79,80 We incubated bacteria from the E. coli strain (10^6 colony forming units (CFU)/mL) with 500 nM hydrogen peroxide for 2 hours at 37° C. Following precipitation and resuspension of this bacteria in media with no H2O2, we added compound 7. In parallel, compound 7 was also added to bacteria that were not exposed to H2O2.

SMILES: O=C([O-])c1c(Cl)c(Cl)c(Cl)c(Cl)c1-c1c2cc(I)c(=O)c(I)c-2oc2c(I)c([O-])c(I)cc12.[Na+].[Na+] [Rose Bengal]
- φΔ of reference standard [1]: 0.54

SMILES: CC1=C(I)C(C)=[N+]2C1=C(COC(=O)C1(C)CCc3c(C)c(O)c(C)c(C)c3O1)c1c(C)c(I)c(C)n1[B-]2(F)F (racemic) [Compound 8, 8-((±)-6-Hydroxy-2,5,7,8-tetramethylchromane-2-carbonyloxy)-2,6-diiodo-methyl-1,3,5,7-tetramethylpyrromethene Fluoroborate]
- drop in φf caused by the trap segment ([2]; 7 compared to reference 4, 8 compared to 5): ca. 2 fold
- abs λmax ([2]; acetonitrile, room temperature): 552 nm
- em λmax ([2]; acetonitrile, room temperature): 576 nm
- Φf (fluorescence quantum yield) ([2]; acetonitrile, room temperature): 0.009 ± 0.002
- ε (extinction coefficient) ([2]; acetonitrile, room temperature): 63000 M⁻¹ cm⁻¹
- kdec (fluorescence decay rate constant) [3]: 555.6 ± 0.6 × 10^7 s^−1
- knr (non-radiative decay rate constant, (1−φf)×kdec) [3]: 551.0 ± 0.5 × 10^7 s^−1
- krad (radiative rate constant, φf×kdec) [3]: 5.0 ± 0.1 × 10^7 s^−1
- increase in kT upon covalent attachment of the chromanol ([4]; 8 compared to its precursor 5): 6 fold
- kq (triplet quenching rate constant) Q = PMHC ([4]; Ar saturated acetonitrile): 5.90 ± 0.09 × 10^8 M^−1s^−1
- kT (triplet decay rate constant) Air equilibrated ([4]; acetonitrile, air equilibrated): 4.55 ± 0.02 × 10^6 s^−1
- kT (triplet decay rate constant) Argon Purged ([4]; acetonitrile, argon purged): 9.16 ± 0.05 × 10^4 s^−1
- kq (triplet quenching rate constant) Q = ^3O2 ([4]; acetonitrile, calculated with oxygen solubility 2.42 mM): 1.88 ± 0.02 × 10^9 M^−1s^−1
- ΦΔ^I (singlet oxygen quantum yield, indirect) [5]: 0.46 ± 0.03
- φΔ relative to control compound 5 [6]: ca. ½
- ΦΔ^D (singlet oxygen quantum yield, direct) ([6]; ^1O2 phosphorescence at 1270 nm, air equilibrated acetonitrile): 0.57 ± 0.02
- ^1O2 phosphorescence decay lifetime ([6]; upon photosensitization, air equilibrated acetonitrile): 70 μs

- singlet oxygen quenching rate constant kq [7]: 4e+08 M⁻¹ s⁻¹
SMILES: Cc1c(C)c2c(c(C)c1O)CCC(C)(C)O2 [PMHC, 2,2,5,7,8-pentamethyl-6-hydroxy-chroman]
- overall singlet oxygen quenching rate constant kq [8]: 1.96e+08 M⁻¹ s⁻¹
- chemical quenching of ^1O2 [8]: 5%
- physical quenching of ^1O2 [8]: 95%

SMILES: CC(=O)OCC1=C2C(C)=CC(C)=[N+]2[B-](F)(F)n2c(C)cc(C)c21 [Compound 2, 8-Acetoxymethyl-1,3,5,7-tetramethyl Pyrromethene Fluoroborate]
- abs λmax [9]: 515 nm
- em λmax [9]: 530 nm
- Φf (fluorescence quantum yield) [9]: 0.87 ± 0.02
- ε (extinction coefficient) [9]: 81000 M⁻¹ cm⁻¹
- E00 (HOMO-LUMO gap) [9]: 2.38 eV
- kdec (fluorescence decay rate constant) [10]: 15.0 ± 0.2 × 10^7 s^−1
- knr (non-radiative decay rate constant) [10]: 2.0 ± 0.1 × 10^7 s^−1
- krad (radiative rate constant) [10]: 13.1 ± 0.2 × 10^7 s^−1
- E^opc (cathodic peak potential) ([11]; from reference 31): −1.44
- E^oB^+·/B (reversible oxidation potential) [11]: 0.75
- εHOMO [12]: −5.49 ± 0.01 eV
- εLUMO [12]: −2.61 ± 0.05 eV
- ΔGeT (Singlet), Gibbs free energy for PeT [13]: −0.24 eV

SMILES: Cc1c(C)c2c(c(C)c1O)CC[C@@](C)(CCC[C@H](C)CCC[C@H](C)CCCC(C)C)O2 [α-tocopherol]
- overall singlet oxygen quenching rate constant kq [8]: 2.06e+08 M⁻¹ s⁻¹
- chemical quenching of ^1O2 [8]: 7%
- physical quenching of ^1O2 [8]: 93%

SMILES: CC1=CC(C)=[N+]2C1=C(C)c1c(C)cc(C)n1[B-]2(F)F [Compound 1, 1,3,5,7,8-pentamethyl-Pyrromethene Fluoroborate]
- abs λmax [9]: 491 nm
- em λmax [9]: 498 nm
- Φf (fluorescence quantum yield) [9]: 0.81 ± 0.02
- ε (extinction coefficient) [9]: 97000 M⁻¹ cm⁻¹
- E00 (HOMO-LUMO gap) [9]: 2.53 eV
- kdec (fluorescence decay rate constant) [10]: 17.8 ± 0.1 × 10^7 s^−1
- knr (non-radiative decay rate constant) [10]: 3.3 ± 0.1 × 10^7 s^−1
- krad (radiative rate constant) [10]: 14.4 ± 0.1 × 10^7 s^−1
- E^oB^+·/B (reversible oxidation potential) [11]: 0.77
- εHOMO [12]: −5.36 ± 0.01 eV
- εLUMO [12]: −2.31 ± 0.05 eV
- ΔGeT (Singlet), Gibbs free energy for PeT [13]: −0.26 eV

SMILES: OO [Compound H2O2, hydrogen peroxide, reference compound]
- colony forming units, dark controls (E. coli ATCC 25922): no effect in the CFU
